Reference: US12516285B2, “Small peptide MIPEP166I and use thereof in plant tissue culture” (Nanjing Forestry University, priority 2023, dated 2026)
Marks after values point to notes of the source that are not given here.

Tests used:
Assay type in all cases: in vivo, 84K poplar (Populus alba×Populus tremula var. glandulosa)
[1] = test system: miR166i; experiment: RT-qPCR of miR166i in 84K poplar after exogenous peptide treatment
Experimental: (§1) The three synthetic peptides were each added to MS medium at a concentration of 5 μM as exogenous treatments, while sterile water was chosen as the blank control (CK) treatment (FIG. 1B).
(§2) To investigate the possible role of miPEP166i in its corresponding miRNA biogenesis, RT-qPCR was first used to analyze the abundance changes of pri-miR166i and miR166i in 84K poplar after 24 hours of exogenous treatment.
(§3) During the process of adventitious root elongation, samples collected at 6, 9, and 12 days after cultivation (T1, T2, and T3 stages) were used to detect the expression of miR166i and its targets, aiming to explore the dynamic regulatory pattern of exogenous miPEP166i treatment (FIG. 3A). Due to the equivalence of NSP and IP treatments (FIG. 2G and FIG. 2H), only samples treated with CK, NSP, and miPEP, along with control samples, were used for quantitative miRNA expression and transcriptome sequencing analysis.

[2] = test system: 84K poplar; experiment: Adventitious root formation and elongation in tissue culture on peptide-treated MS medium; details: 5 μM in MS medium, plants cultured for two weeks, n=15
Experimental: as §1
This may be due to the exogenous peptides acting as biological stimulants and osmotic agents, broadly inducing miRNA expression, with the lowest expression of miR166i observed in the CK samples.

[3] = test system: pri-miR166i; experiment: RT-qPCR of pri-miR166i in 84K poplar stem explants after exogenous peptide treatment; details: 5 μM in MS medium, 24 hours, vs control treatments
Experimental: as §1, §2

[4] = test system: PagHB8; experiment: Expression of miR166i target gene PagHB8 (RT-qPCR and RNA-seq)
Excerpt: as §3
(§4) RNA-seq libraries were constructed from the root systems of 84K poplar to investigate the effects of miPEP166i induction on miR166i targets.

[5] = test system: PagREV; experiment: Expression of miR166i target gene PagREV (RT-qPCR and RNA-seq)
Excerpt: as §3, §4

[6] = test system: root systems of 84K poplar; experiment: Time-course transcriptome (RNA-seq), differentially expressed genes; details: for differentially expressed genes (DEGs): miPEP vs mock and vs NSP, |log2FC|>1 and FDR<0.05
Excerpt: as §3, §4
(§5) Using time-course transcriptome data from the root systems of 84K poplar, we explored the potential downstream gene expression responses induced by exogenous application of miPEP166i. By cross-comparing miPEP treatment with mock treatment and miPEP treatment with NSP treatment, we identified 114, 130, and 547 differentially expressed genes (DEGs) (|log2FC|>1 and FDR<0.05) at the T1, T2, and T3 stages, respectively. […] These genes are controlled by the master switches of HD-ZIP III transcription factors.

[7] = test system: Genes in Hormone Metabolism and Signaling Pathways; experiment: Time-course transcriptome (RNA-seq), hormone-related genes
Excerpt: as §3, §4, §5
Multiple intersections between hormone signaling and HD-ZIP III activity occur during root elongation. Numerous plant hormone-related genes were found within the DEG set, including genes related to auxin and cytokinin synthesis, (De)conjugation, transport, and signaling (Table 1).

[8] = T1 stage (6 days after culture), P<0.05
[9] = T2 and T3 stages (9 and 12 days after culture)
[10] = T3 stage (12 DAC), miPEP vs NSP

For “IP: interference control peptide, same amino acids but different sequence, MSDFGGQPTLPFCLSSLNPKSTLK (SEQ ID NO.5)”, the “expression of miR166i compared to NSP samples” value ([1]; 5 μM in MS medium, stem explants, 24 hours) was “slightly higher expression of miR166i was observed after IP treatment compared to its expression in NSP samples, the difference was not significant”, the “length of adventitious roots” value [2] was “equivalence” and the “number of adventitious roots” value [2] was “equivalence”.
In the case of “miPEP166i: small peptide encoded by pri-miRNA166i of 84K poplar, amino acid sequence SEQ ID NO.3 (MDGQTPCSLPSLSFGPLFLSNKTK; Populus alba x Populus tremula var. glandulosa)”, the “expression of pri-miR166i” value [3] was “did not result in significant changes”, the “expression of miR166i” value ([1]; 5 μM in MS medium, stem explants, 24 hours, vs the three control treatments) was “significantly enhanced” and the miR166i expression ([1]; T1, T2 and T3 stages (6, 9, 12 days after culture), vs CK and NSP) was “significant enhancement”. For the same substance, the “length of adventitious roots” value [2] was “significant increase”, the “number of adventitious roots” value [2] was “significant increase” and the “expression of PagHB8” value [4, 8] was “significantly reduced”. For the same substance, the “expression of PagHB8” value [4, 9] was “no significant reduction”, the “expression of PagREV” value [5, 8] was “significantly reduced” and the “expression of PagREV” value [5, 9] was “no significant reduction”. For the same substance, the “differentially expressed genes (DEGs)” value ([6]; T1 stage) was 114, the “differentially expressed genes (DEGs)” value ([6]; T2 stage) was 130 and the “differentially expressed genes (DEGs)” value ([6]; T3 stage) was 547. The downregulated genes ([6]; across all three stages) was 139, the upregulated genes ([6]; across all three stages) was 552 and the “expression of genes involved in cellulose and lignin biosynthesis (PagCSLD4, PagCAD7, PagCOBL1, PagPAL2)” value ([6]; miPEP-treated samples, root transcriptome) was “upregulated”. For the same substance, the “FC_T1 miPEP/CK, ABCB9 (Pag_G_024492)” value ([7]; T1 stage (6 DAC), miPEP vs CK) was −1.07*, the “FC_T1 miPEP/CK, CKX3 (Pag_A_037490)” value ([7]; T1 stage (6 DAC), miPEP vs CK) was 4.85* and the “FC_T1 miPEP/CK, GH3.10 (Pag_A_034334)” value ([7]; T1 stage (6 DAC), miPEP vs CK) was −2.92*. For the same substance, the “FC_T1 miPEP/CK, GH3.10 (Pag_G_015269)” value ([7]; T1 stage (6 DAC), miPEP vs CK) was −1.67**, the “FC_T1 miPEP/CK, GH3.10 (Pag_G_025244)” value ([7]; T1 stage (6 DAC), miPEP vs CK) was −4.42* and the “FC_T1 miPEP/CK, LOG5 (Pag_G_021773)” value ([7]; T1 stage (6 DAC), miPEP vs CK) was −1.91*. For the same substance, the “FC_T1 miPEP/NSP, ABCB9 (Pag_G_024492)” value ([7]; T1 stage (6 DAC), miPEP vs NSP) was −0.72, the “FC_T1 miPEP/NSP, CKX3 (Pag_A_037490)” value ([7]; T1 stage (6 DAC), miPEP vs NSP) was 2.61 and the “FC_T1 miPEP/NSP, GH3.10 (Pag_A_034334)” value ([7]; T1 stage (6 DAC), miPEP vs NSP) was −2.2. The “FC_T1 miPEP/NSP, GH3.10 (Pag_G_015269)” value ([7]; T1 stage (6 DAC), miPEP vs NSP) was −1.21*, the “FC_T1 miPEP/NSP, GH3.10 (Pag_G_025244)” value ([7]; T1 stage (6 DAC), miPEP vs NSP) was −3.64 and the “FC_T1 miPEP/NSP, LOG5 (Pag_G_021773)” value ([7]; T1 stage (6 DAC), miPEP vs NSP) was −2.14*. For the same substance, the “FC_T2 miPEP/CK, CKI1 (Pag_A_024550)” value ([7]; T2 stage (9 DAC), miPEP vs CK) was 1.02**, the “FC_T2 miPEP/CK, CKI1 (Pag_G_014127)” value ([7]; T2 stage (9 DAC), miPEP vs CK) was 0.93* and the “FC_T2 miPEP/CK, CKX1 (Pag_G_016517)” value ([7]; T2 stage (9 DAC), miPEP vs CK) was −1.17. For the same substance, the “FC_T2 miPEP/CK, TAA1 (Pag_G_035628)” value ([7]; T2 stage (9 DAC), miPEP vs CK) was 0.74, the “FC_T2 miPEP/CK, TAA1 (Pag_G_035629)” value ([7]; T2 stage (9 DAC), miPEP vs CK) was 0.78 and the “FC_T2 miPEP/NSP, CKI1 (Pag_A_024550)” value ([7]; T2 stage (9 DAC), miPEP vs NSP) was 1.11**. For the same substance, the “FC_T2 miPEP/NSP, CKI1 (Pag_G_014127)” value ([7]; T2 stage (9 DAC), miPEP vs NSP) was 1.14**, the “FC_T2 miPEP/NSP, CKX1 (Pag_G_016517)” value ([7]; T2 stage (9 DAC), miPEP vs NSP) was −2.19* and the “FC_T2 miPEP/NSP, TAA1 (Pag_G_035628)” value ([7]; T2 stage (9 DAC), miPEP vs NSP) was 1.72*. For the same substance, the “FC_T2 miPEP/NSP, TAA1 (Pag_G_035629)” value ([7]; T2 stage (9 DAC), miPEP vs NSP) was 1.49**, the “expression of genes encoding auxin transport proteins (PIN, ABCB, PIN-LIKES)” value ([7]; T3 stage) was “significantly increased” and the “FC_T3 miPEP/CK, ABCB8 (Pag_A_020924)” value ([7]; T3 stage (12 DAC), miPEP vs CK) was −1.18**. The “FC_T3 miPEP/CK, ABCB11 (Pag_A_005381)” value ([7]; T3 stage (12 DAC), miPEP vs CK) was 2.40**, the “FC_T3 miPEP/CK, ABCB11 (Pag_A_010928)” value ([7]; T3 stage (12 DAC), miPEP vs CK) was 1.90** and the “FC_T3 miPEP/CK, ABCB11 (Pag_G_007723)” value ([7]; T3 stage (12 DAC), miPEP vs CK) was 2.08**. The “FC_T3 miPEP/CK, ABCB15 (Pag_A_017535)” value ([7]; T3 stage (12 DAC), miPEP vs CK) was 1.05**, the “FC_T3 miPEP/CK, ABCB15 (Pag_G_028009)” value ([7]; T3 stage (12 DAC), miPEP vs CK) was 1.21** and the “FC_T3 miPEP/CK, ABCB25 (Pag_A_009324)” value ([7]; T3 stage (12 DAC), miPEP vs CK) was 1.18. The “FC_T3 miPEP/CK, ARF11 (Pag_G_003815)” value ([7]; T3 stage (12 DAC), miPEP vs CK) was −1.75**, the “FC_T3 miPEP/CK, IAA29 (Pag_G_007396)” value ([7]; T3 stage (12 DAC), miPEP vs CK) was −0.94* and the “FC_T3 miPEP/CK, LOG1 (Pag_A_016041)” value ([7]; T3 stage (12 DAC), miPEP vs CK) was −2.72**. For the same substance, the “FC_T3 miPEP/CK, LOG3 (Pag_G_010191)” value ([7]; T3 stage (12 DAC), miPEP vs CK) was −1.55, the “FC_T3 miPEP/CK, PILS3 (Pag_A_012930)” value ([7]; T3 stage (12 DAC), miPEP vs CK) was 4.74* and the “FC_T3 miPEP/CK, PILS7 (Pag_G_005929)” value ([7]; T3 stage (12 DAC), miPEP vs CK) was 0.96**. The “FC_T3 miPEP/CK, PIN7 (Pag_A_015236)” value ([7]; T3 stage (12 DAC), miPEP vs CK) was 1.33**, the “FC_T3 miPEP/CK, PIN8 (Pag_A_008558)” value ([7]; T3 stage (12 DAC), miPEP vs CK) was −1.07* and the “FC_T3 miPEP/CK, PIN8 (Pag_G_019315)” value ([7]; T3 stage (12 DAC), miPEP vs CK) was 1.02**. The “FC_T3 miPEP/NSP, ABCB8 (Pag_A_020924)” value [7, 10] was −0.71, the “FC_T3 miPEP/NSP, ABCB11 (Pag_A_005381)” value [7, 10] was 1.34** and the “FC_T3 miPEP/NSP, ABCB11 (Pag_A_010928)” value [7, 10] was 1.13*. The “FC_T3 miPEP/NSP, ABCB11 (Pag_G_007723)” value [7, 10] was 1.34*, the “FC_T3 miPEP/NSP, ABCB15 (Pag_A_017535)” value [7, 10] was 1.11** and the “FC_T3 miPEP/NSP, ABCB15 (Pag_G_028009)” value [7, 10] was 1.27**. For the same substance, the “FC_T3 miPEP/NSP, ABCB25 (Pag_A_009324)” value [7, 10] was 3.26*, the “FC_T3 miPEP/NSP, ARF11 (Pag_G_003815)” value [7, 10] was −1.14* and the “FC_T3 miPEP/NSP, IAA29 (Pag_G_007396)” value [7, 10] was −1.21**. The “FC_T3 miPEP/NSP, LOG1 (Pag_A_016041)” value [7, 10] was −2.28*, the “FC_T3 miPEP/NSP, LOG3 (Pag_G_010191)” value [7, 10] was −1.86* and the “FC_T3 miPEP/NSP, PILS3 (Pag_A_012930)” value [7, 10] was −2.93. For the same substance, the “FC_T3 miPEP/NSP, PILS7 (Pag_G_005929)” value [7, 10] was 1.03**, the “FC_T3 miPEP/NSP, PIN7 (Pag_A_015236)” value [7, 10] was 1.08** and the “FC_T3 miPEP/NSP, PIN8 (Pag_A_008558)” value [7, 10] was −0.94. The “FC_T3 miPEP/NSP, PIN8 (Pag_G_019315)” value [7, 10] was 1.16**, the “expression of PagCKI1 (cytokinin signaling)” value ([7]; miPEP-treated samples) was “upregulated” and the “expression of PagGH3 (auxin conjugation)” value ([7]; miPEP-treated samples) was “downregulated”. For the same substance, the “expression of auxin synthesis gene PagTAA1” value ([7]; miPEP-treated samples) was “significantly upregulated” and the “expression of cytokinin synthesis gene PagLOG” value ([7]; miPEP-treated samples) was “significantly downregulated”.
For “NSP: non-specific control peptide of 15 amino acids, CLLNCPIYWQQLREX (SEQ ID NO.4)”, the “length of adventitious roots” value [2] was “equivalence” and the “number of adventitious roots” value [2] was “equivalence”.
